According to patent US20150291565A1, “INDOLE COMPOUNDS AND THEIR USE AS ANTIMICROBIALS” (Memorial Sloan-Kettering Cancer Center, priority 2012, published 2015):
In brackets after ≈: the same amount, converted by molar mass. Read-outs that look alike come from different tables or passages of the source.

What was measured:
[1] = test system: E. faecium CT-26; experiment: Broth dilution MIC, E. faecium CT-26; format: cell-based; conditions: Enterococcus faecium
[2] = test system: K. pneumoniae ATCC 51503; experiment: Broth dilution MIC, K. pneumoniae ATCC 51503; format: cell-based; conditions: Klebsiella pneumoniae
[3] = test system: P. aeruginosa ATCC 9027; experiment: Broth dilution MIC, P. aeruginosa ATCC 9027; format: cell-based; conditions: Pseudomonas aeruginosa
[4] = test system: MRSA; experiment: Disk diffusion assay, zone of inhibition, MRSA; format: cell-based, Staphylococcus aureus; conditions: disk diffusion zone of inhibition
[5] = test system: E. coli ECM 1694; experiment: Broth dilution MIC, E. coli ECM 1694; format: cell-based; conditions: Escherichia coli
[6] = test system: S. pneumoniae ATCC 700674 (PRSP); experiment: Broth dilution MIC, S. pneumoniae ATCC 700674; format: cell-based; conditions: Streptococcus pneumoniae
[7] = test system: K. pneumoniae ATCC 13883; experiment: Broth dilution MIC, K. pneumoniae ATCC 13883; format: cell-based; conditions: Klebsiella pneumoniae
[8] = test system: M. smegmatis (mc2155); experiment: Disk diffusion assay, zone of inhibition, M. smegmatis; format: cell-based; conditions: disk diffusion zone of inhibition
[9] = test system: E. faecalis ATCC 29212 (VRE); experiment: Broth dilution MIC, E. faecalis ATCC 29212; format: cell-based
[10] = test system: S. aureus ATCC 29213 (MSSA); experiment: Broth dilution MIC, S. aureus ATCC 29213; format: cell-based; conditions: Staphylococcus aureus
[11] = test system: S. aureus ATCC 33591 (MRSA); experiment: Broth dilution MIC, S. aureus ATCC 33591; format: cell-based; conditions: Staphylococcus aureus
[12] = test system: E. coli ATCC 25922; experiment: Broth dilution MIC, E. coli ATCC 25922; format: cell-based; conditions: Escherichia coli
[13] = test system: C. albicans ATCC 14053; experiment: Broth dilution MIC, C. albicans ATCC 14053; format: cell-based; conditions: Candida albicans, ATCC14053; Table 1; range 64 down to 0.12 μg/ml
Procedure: In vitro Anti-bacterial & Anti-fungal Activity Assay: All test compounds were prepared as 6.4 mg/ml stock solutions in DMSO and further diluted according to the NCCLS M7-A6 (Page 5) document with sterile water or appropriate diluent. A working stock of 256 μg/ml was used to do 1:2 serial dilutions in 96-well plates. […] The inoculums were prepared by making a direct sterile water suspension of isolated colonies from 18 to 24 hr agar plates for all organisms (Mueller Hinton, Blood Agar or SDA plates). Each bacterial suspension was adjusted to read between 0.09 and 0.11 absorbance at 620 nm. […] These were further diluted 1/100 in appropriate broth for inoculating the 96-well plates. The C. albicans suspension was adjusted to read between 70 and 75% Transmittance at 530 nm and then diluted 1/500 in RPMI+MOPS broth. All aerobic bacterial and fungal plates were incubated for 18 hrs. at 35° C. […] Plates were read using a Beckman Automated Plate Reader at 650 nm. Readings were confirmed by visual examination of plates. (See Table 1, Table 2, Table 3, and Table 4). […] It is important to note that positive results against C. albicans are often indicative of broad spectrum antifungal activity, while negative results are not necessarily conclusory of a lack of activity against other fungus.

[14] = test system: S. aureus BAA-39 (MDR); experiment: Broth dilution MIC, S. aureus BAA-39; format: cell-based; conditions: Staphylococcus aureus, BAA39
[15] = test system: S. pneumoniae ATCC 6301 (PSSP); experiment: Broth dilution MIC, S. pneumoniae ATCC 6301; format: cell-based; conditions: Streptococcus pneumoniae
[16] = test system: E. faecium ATCC 700221 (VRE); experiment: Broth dilution MIC, E. faecium ATCC 700221; format: cell-based
[17] = CT26, Table 1, range 64 down to 0.12 μg/ml, read-out: MIC E. faecium CT-26
[18] = CT26, Table 2, broth dilution MIC in ug/ml, read-out: MIC E faecium CT-25
[19] = ATCC51503, Table 1, range 64 down to 0.12 μg/ml, read-out: MIC K. pneumoniae ATCC 51503
[20] = ATCC51503, Table 2, broth dilution MIC in ug/ml, read-out: MIC K pneumonia ATCC 51503
[21] = ATCC 9026 / ATCC 9027, Table 2, broth dilution MIC in ug/ml, read-out: MIC P aeruginosa ATCC 9026
[22] = ATCC9027, Table 1, range 64 down to 0.12 μg/ml, read-out: MIC P. aeruginosa ATCC 9027
[23] = ECM1694, Table 1, range 64 down to 0.12 μg/ml, read-out: MIC E. coli ECM 1694
[24] = ECM1694, Table 2, broth dilution MIC in ug/ml, read-out: MIC E. coli ECM 1693
[25] = Table 1, range 64 down to 0.12 μg/ml, read-out: MIC S. pneumoniae ATCC 700674
[26] = Table 2, broth dilution MIC in ug/ml, read-out: MIC S pneumonia ATCC 700674 PRSP
[27] = ATCC13883, Table 1, range 64 down to 0.12 μg/ml, read-out: MIC K. pneumoniae ATCC 13883
[28] = ATCC13883, Table 2, broth dilution MIC in ug/ml, read-out: MIC K pneumonia ATCC 13883
[29] = Enterococcus faecalis, Table 1, range 64 down to 0.12 μg/ml, read-out: MIC E. faecalis ATCC 29212
[30] = Table 2, broth dilution MIC in ug/ml, read-out: MIC E faecalis ATCC 29212 VRE
[31] = Table 1, range 64 down to 0.12 μg/ml, read-out: MIC S. aureus ATCC 29213
[32] = Table 2, broth dilution MIC in ug/ml, read-out: MIC S aureus ATCC 29213 MSSA
[33] = Table 1, range 64 down to 0.12 μg/ml, read-out: MIC S. aureus ATCC 33591
[34] = Table 2, broth dilution MIC in ug/ml, read-out: MIC S aureus ATCC 33591 MRSA
[35] = ATCC 25921 / ATCC 25922, Table 2, broth dilution MIC in ug/ml, read-out: MIC E. coli ATCC 25921
[36] = ATCC25922, Table 1, range 64 down to 0.12 μg/ml, read-out: MIC E. coli ATCC 25922
[37] = Table 1, range 64 down to 0.12 μg/ml, read-out: MIC S. aureus BAA-39
[38] = Table 2, broth dilution MIC in ug/ml, read-out: MIC S aureus BAA-39 MDR
[39] = ATCC6301, Table 1, range 64 down to 0.12 μg/ml, read-out: MIC S. pneumoniae ATCC 6301
[40] = ATCC6301, Table 2, broth dilution MIC in ug/ml, read-out: MIC S pneumonia ATCC 6301 PSSP
[41] = Enterococcus faecium, Table 1, range 64 down to 0.12 μg/ml, read-out: MIC E. faecium ATCC 700221
[42] = Table 2, broth dilution MIC in ug/ml, read-out: MIC E faecium ATCC 700221 VRE

| Structure (SMILES) | MIC [1, 17] | MIC [1, 18] | MIC [2, 19] | MIC [2, 20] | MIC [3, 21] | MIC [3, 22] | Zone Size MRSA [4] | MIC [5, 23] | MIC [5, 24] | MIC [6, 25] | MIC [6, 26] | MIC [7, 27] | MIC [7, 28] | Zone Size M. smegmatis [8] | MIC [9, 29] | MIC [9, 30] | MIC [10, 31] | MIC [10, 32] | MIC [11, 33] | MIC [11, 34] | other results |
| --- | --- | --- | --- | --- | --- | --- | --- | --- | --- | --- | --- | --- | --- | --- | --- | --- | --- | --- | --- | --- | --- |
| c1ccc(Nc2ccc(-c3cc4ccc(C5=NCCN5)cc4[nH]3)cc2)cc1 [SKI-2] | 2 µg/mL (≈ 5.67 µM) | 2 µg/mL (≈ 5.67 µM) | 64 µg/mL (≈ 182 µM) | 64 µg/mL (≈ 182 µM) | 64 µg/mL (≈ 182 µM) | 64 µg/mL (≈ 182 µM) | 10 mm | 2 µg/mL (≈ 5.67 µM) | 2 µg/mL (≈ 5.67 µM) | 4 µg/mL (≈ 11.3 µM) | 4 µg/mL (≈ 11.3 µM) | 32 µg/mL (≈ 90.8 µM) | 32 µg/mL (≈ 90.8 µM) | 14.3 mm | 2 µg/mL (≈ 5.67 µM) | 2 µg/mL (≈ 5.67 µM) | 8 µg/mL (≈ 22.7 µM) | 8 µg/mL (≈ 22.7 µM) | 4 µg/mL (≈ 11.3 µM) | 4 µg/mL (≈ 11.3 µM) | MIC [12, 35]: 16 µg/mL (≈ 45.4 µM); MIC [12, 36]: 16 µg/mL (≈ 45.4 µM); MIC [13]: 16 µg/mL (≈ 45.4 µM); MIC [14, 37]: 4 µg/mL (≈ 11.3 µM); MIC [14, 38]: 4 µg/mL (≈ 11.3 µM); MIC [15, 39]: 2 µg/mL (≈ 5.67 µM); MIC [15, 40]: 2 µg/mL (≈ 5.67 µM); MIC [16, 41]: 2 µg/mL (≈ 5.67 µM); MIC [16, 42]: 2 µg/mL (≈ 5.67 µM) |
| Nc1ccc(Nc2ccc(-c3cc4ccc(C5=NCCN5)cc4[nH]3)cc2)cc1 [SKI-8] | 4 µg/mL (≈ 10.9 µM) | 4 µg/mL (≈ 10.9 µM) | > 64 µg/mL | 64 µg/mL (≈ 174 µM) | 64 µg/mL (≈ 174 µM) | > 64 µg/mL | 12 mm | 2 µg/mL (≈ 5.44 µM) | 2 µg/mL (≈ 5.44 µM) | 32 µg/mL (≈ 87.1 µM) | 32 µg/mL (≈ 87.1 µM) | > 64 µg/mL | 64 µg/mL (≈ 174 µM) | 24 mm | 8 µg/mL (≈ 21.8 µM) | 8 µg/mL (≈ 21.8 µM) | 16 µg/mL (≈ 43.5 µM) | 16 µg/mL (≈ 43.5 µM) | 8 µg/mL (≈ 21.8 µM) | 8 µg/mL (≈ 21.8 µM) | MIC [12, 35]: 32 µg/mL (≈ 87.1 µM); MIC [12, 36]: 32 µg/mL (≈ 87.1 µM); MIC [13]: 64 µg/mL (≈ 174 µM); MIC [14, 37]: 16 µg/mL (≈ 43.5 µM); MIC [14, 38]: 16 µg/mL (≈ 43.5 µM); MIC [15, 39]: 8 µg/mL (≈ 21.8 µM); MIC [15, 40]: 8 µg/mL (≈ 21.8 µM); MIC [16, 41]: 4 µg/mL (≈ 10.9 µM); MIC [16, 42]: 4 µg/mL (≈ 10.9 µM) |
